In PMC7162861, “Synthesis, cytotoxicity, pharmacokinetic profile, binding with DNA and BSA of new imidazo[1,2-a]pyrazine-benzo[d]imidazol-5-yl hybrids” (Scientific Reports, 2020):
Read-outs that look alike come from different tables or passages of the source.

Assays:
A549/ATCC = assay: NCI cytotoxicity screen, Non-Small Cell Lung Cancer panel; type: cell-based
Experimental: (§1) Cytotoxicity was performed at National Cancer Institute (NCI), Bethesda, USA as per their protocols.

EXVX = assay: as above; type: cell-based; settings: Homo sapiens
Experimental: as §1

HOP-62 = assay: as above; type: cell-based
Experimental: as §1

HOP-92 = assay: as above; type: cell-based
Experimental: as §1

NCI-H460 = assay: as above; type: cell-based
Experimental: as §1

COLO 205 = assay: NCI cytotoxicity screen, Colon Cancer panel; type: cell-based
Experimental: as §1

HCT-116 = assay: NCI cytotoxicity screen, Colon Cancer panel; type: cell-based; settings: Homo sapiens, five dose 0.01–100 µM
Experimental: as §1

HCT-15 = assay: NCI cytotoxicity screen, Colon Cancer panel; type: cell-based; settings: Homo sapiens
Experimental: as §1

HT29 = assay: NCI cytotoxicity screen, Colon Cancer panel; type: cell-based
Experimental: as §1

SF-268 = assay: NCI cytotoxicity screen, CNS Cancer panel; type: cell-based
Experimental: as §1

SF-295 = assay: NCI cytotoxicity screen, CNS Cancer panel; type: cell-based
Experimental: as §1

SF-539 = assay: NCI cytotoxicity screen, CNS Cancer panel; type: cell-based
Experimental: as §1

SNB-19 = assay: NCI cytotoxicity screen, CNS Cancer panel; type: cell-based
Experimental: as §1

SNB-75 = assay: NCI cytotoxicity screen, CNS Cancer panel; type: cell-based
Experimental: as §1

U251 = assay: NCI cytotoxicity screen, CNS Cancer panel; type: cell-based
Experimental: as §1

OVCAR-3 = assay: NCI cytotoxicity screen, Ovarian Cancer panel; type: cell-based, human
Experimental: as §1

786-0 = assay: NCI cytotoxicity screen, Renal Cancer panel; type: cell-based, human; settings: five dose 0.01–100 µM
Experimental: as §1

TK-10 = assay: NCI cytotoxicity screen, Renal Cancer panel; type: cell-based, human; settings: five dose 0.01–100 µM
Experimental: as §1

A498 = assay: NCI cytotoxicity screen, Renal Cancer panel; type: cell-based
Experimental: as §1

[1] = system: NCI-60 cancer cell panels; assay: NCI cytotoxicity screen, full panel summary; type: cell-based
Experimental: as §1

[2] = system: Human Embryonic Kidney cells (HEK293); assay: MTT assay on normal cell line; type: cell-based; settings: 48 h
Experimental: HEK-293 cells (human embryonic kidney cells) were grown in Dulbecco’s modified eagle’s medium (DMEM) supplemented with 100 U/ml penicillin, 10% FBS, […] streptomycin and 50 mM glutamine. Furthermore, cells were harvested using trypsin and seeded in a 96-well cell culture plate for the MTT (3-(4,5-Dimethylthiazol-2-yl)-2,5-diphenyltetrazolium bromide) assay. The test compound was solubilized in cell culture grade DMSO. Once the cells in 96-well plates were 70% confluent, the compound was injected to the cells at five concentrations (0.01, 0.1, 1, 10, 100 µM) at 37 °C for 48 h (made in DMEM supplemented with 1% antibiotic and 10% FBS). After 48 h, cells were washed with PBS and added with 100 μL of fresh media in each well along with 10 μL of MTT reagent (5 mg/mL) for another 4 h. After 4 h, the media was again removed and added 100 μL cell culture grade DMSO to dissolve the formazan crystals formed by the reduction of MTT by live cells. The quantity of formed formazan crystal was determined as alterations in absorbance at 570 nm wavelength using ELISA plate reader (Bio-Tek). All tests were accomplished three times. The cell toxicity (%) was calculated using the following formula: %CellToxicity=100−ODoftreatedwell/ODofuntreatedwell×100

CT-DNA = assay: Thermal denaturation of CT-DNA; type: binding, calf; settings: CT-DNA 8.5 µM : compound 10 µM, pH 7.4
Experimental: DNA melting studies were completed by measuring the absorption spectra at 260 nm of CT-DNA (8.5 µM) and CT-DNA-derivative 31 complex (8.5 µM:10 µM) in phosphate buffer (pH 7.4) at varying temperature from 20 to 100 °C using spectrophotometer connected with Peltier.

[3] = molecular target: bovine serum albumin (BSA) (Bos taurus, UniProt P02769); assay: BSA binding, fluorescence quenching (Stern-Volmer, Scatchard)
Chain of bovine serum albumin (BSA) (P02769 25-607): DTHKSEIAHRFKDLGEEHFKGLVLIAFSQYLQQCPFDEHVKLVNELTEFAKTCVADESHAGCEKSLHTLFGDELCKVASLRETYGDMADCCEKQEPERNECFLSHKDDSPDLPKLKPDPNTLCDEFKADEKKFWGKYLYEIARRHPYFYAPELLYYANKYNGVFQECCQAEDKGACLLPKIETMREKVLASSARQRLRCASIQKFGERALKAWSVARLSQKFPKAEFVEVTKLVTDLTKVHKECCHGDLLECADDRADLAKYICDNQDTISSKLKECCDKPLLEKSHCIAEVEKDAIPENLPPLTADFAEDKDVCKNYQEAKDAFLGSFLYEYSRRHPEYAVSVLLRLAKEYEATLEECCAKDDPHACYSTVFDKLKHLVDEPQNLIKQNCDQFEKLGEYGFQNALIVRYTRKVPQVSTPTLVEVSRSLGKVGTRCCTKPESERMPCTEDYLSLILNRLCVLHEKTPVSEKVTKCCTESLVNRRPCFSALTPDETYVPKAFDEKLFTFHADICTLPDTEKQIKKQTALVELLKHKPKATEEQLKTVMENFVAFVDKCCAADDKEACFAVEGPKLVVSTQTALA
Experimental: The stock solution of compound 31 (10^−3 M) was prepared in DMSO and diluted to required concentration using appropriate buffer solution. Calf thymus (CT)-DNA was dissolved in 10 mM Tris buffer of pH 7.4 having 1 mM EDTA at room temperature. The purity of DNA solution was determined by using the ratio of absorbance at 260 nm and 280 nm wavelength. Extinction coefficient 6600 M^−1 cm^−1 of single nucleotide at 260 nm was used to determine the concentration of the DNA solution. The stock solution of BSA (10^−3 M) was prepared in distilled water and stored at 4 °C temperature.
[…] The dissociation constant of compound 31 was estimated by titrating the complex of compound 31 (10 µM) and BSA (10 µM) with increasing concentration of ibuprofen (0–15 µM), upon excitation at 280 nm. All emission spectra were recorded in the range of 200 to 800 nm.
Binding parameters KSV and Kq were calculated using the Stern-Volmer equation (Eq. 2):2 F0/F=1+Ksv[Analyte]=1+Kqτo[Analyte]
Fo denotes the emission intensity of derivative 31/BSA free from analyte (CT-DNA/ derivative 31), whereas, F denotes the emission intensity of derivative 31/BSA bound with analyte (CT-DNA/derivative 31). The values of KSV and Kq were determined from the plot of Fo/F vs. [analyte].
The binding parameters Kbin and n were determined using Scatchard equation (Eq. 3):3 logF0−F/F=logKbin+nlog[analyte]
Fo and F denote similar factors as those of the above Stern-Volmer equation. The values of Kbin and n were determined from the plot of log (Fo − F)/F vs. log [analyte].

[4] = Homo sapiens, five dose 0.01–100 µM, read-out: LC50 (the source's name)
[5] = Homo sapiens, five dose 0.01–100 µM

`c1cn2cc(-c3ccc4ncn(C5CCCCC5)c4c3)nc(-c3ccc4c(c3)ncn4C3CCCCC3)c2n1` [Compound 31, 8-(1-cyclohexyl-1H-benzo[d]imidazol-5-yl)-6-(1-cyclohexyl-1H-benzo[d]imidazol-6-yl)imidazo[1,2-a]pyrazine] was tested, and the TGI (A549/ATCC; A549/ATCC, five dose 0.01–100 µM) was 3.54 µM, the GI50 (A549/ATCC; Homo sapiens, A549) was 1940 nM and the CC50 (A549/ATCC; Homo sapiens, A549/ATCC, five dose 0.01–100 µM, read-out: LC50 (the source's name)) was 6.46 µM. For the same compound, the GI50 (EXVX) was 1970 nM, the GI50 (HOP-62; Homo sapiens) was 2000 nM and the CC50 (HOP-62; [4]) was 6.9 µM. It also gave a TGI (HOP-62; five dose 0.01–100 µM) of 3.72 µM, a GI50 (HOP-92; Homo sapiens) of 1540 nM and an LC50 (HOP-92; [5]) of 6.73 µM. It also gave a TGI (HOP-92; five dose 0.01–100 µM) of 3.22 µM, a GI50 (NCI-H460; Homo sapiens) of 1980 nM and a CC50 (NCI-H460; [4]) of 8.16 µM. It also gave a TGI (NCI-H460; five dose 0.01–100 µM) of 4.02 µM, a GI50 (COLO 205; Homo sapiens) of 1930 nM and an LC50 (COLO 205; [5]) of 7.44 µM. It also gave a TGI (COLO 205; five dose 0.01–100 µM) of 3.79 µM, a GI50 (HCT-116) of 1700 nM and a GI50 (HCT-15) of 2070 nM. It also gave a TGI (HT29; HT29, five dose 0.01–100 µM) of 5.20 µM, a GI50 (HT29; Homo sapiens, HT-29) of 2440 nM and a CC50 (HT29; Homo sapiens, HT-29, HT29, five dose 0.01–100 µM, read-out: LC50 (the source's name)) greater than 1000 nM. The GI50 (SF-268; Homo sapiens) was 1590 nM, the CC50 (SF-268; [4]) was 6.23 µM and the TGI (SF-268; five dose 0.01–100 µM) was 3.15 µM. For the same compound, the GI50 (SF-295; Homo sapiens) was 1710 nM, the CC50 (SF-295; [4]) was 5.8 µM and the TGI (SF-295; five dose 0.01–100 µM) was 3.15 µM. For the same compound, the GI50 (SF-539; Homo sapiens) was 1630 nM, the LC50 (concentration killing 50% of cells) (SF-539; [5]) was 6.1 µM and the TGI (SF-539; five dose 0.01–100 µM) was 3.15 µM. It also gave a GI50 (SNB-19; Homo sapiens, SNB-19) of 2110 nM, an inhibition at 10 µM (SNB-19; Homo sapiens, SNB-19, read-out: Percent growth inhibition) of 93.4% and a TGI (SNB-19; SNB-19, five dose 0.01–100 µM) of 4.95 µM. The GI50 (SNB-75; Homo sapiens) was 1390 nM, the LC50 (SNB-75; [5]) was 6.77 µM and the TGI (SNB-75; five dose 0.01–100 µM) was 3.07 µM. It also gave a GI50 (U251; Homo sapiens, U-251) of 1910 nM, a CC50 (U251; Homo sapiens, U-251, U251, five dose 0.01–100 µM, read-out: LC50 (the source's name)) of 6.98 µM and a TGI (U251; U251, five dose 0.01–100 µM) of 3.65 µM. The GI50 (OVCAR-3; Homo sapiens, OVCAR-3) was 1830 nM, the CC50 (OVCAR-3; Homo sapiens, OVCAR-3, read-out: LC50) was 6.2 µM and the TGI (OVCAR-3; OVCAR-3, five dose 0.01–100 µM) was 3.36 µM. The GI50 (786-0; Homo sapiens) was 1730 nM, the TGI (786-0) was 3.47 µM and the GI50 (TK-10; Homo sapiens) was 2020 nM. For the same compound, the TGI (TK-10) was 3.65 µM, the GI50 (A498; Homo sapiens) was 1770 nM and the CC50 (A498; [4]) was 5.85 µM. The TGI (A498; five dose 0.01–100 µM) was 3.22 µM, the GI50 ([1]; Homo sapiens, read-out: Full panel mean-graph midpoint (MG-MID) GI50) was 2120 nM and the GI50 ([1]; Homo sapiens, read-out: GI50 range over nine panels of cell lines) was 800 to 2870 nM. The CC50 ([1]; Homo sapiens, average over all cancer cell lines, five dose, read-out: Full panel mean-graph midpoint (MG-MID) LC50) was 6.63 µM, the “Full panel mean-graph midpoint (MG-MID) TGI” value ([1]; average over all cancer cell lines, five dose) was 4.73 µM and the “number of cell lines with cytostatic effect” value ([1]; single dose 10 µM) was 8. For the same compound, the “number of cell lines with cytotoxic effect” value ([1]; single dose 10 µM) was 51, the “% survival of HEK293 cells” value ([2]; 10^−4 M) was “above 79%” and the “% survival of HEK293 cells” value ([2]; 10^−5 M) was greater than 83%. The “% survival of HEK293 cells” value ([2]; 10^−6 M) was greater than 84%, the “% survival of HEK293 cells” value ([2]; 10^−7 M) was greater than 89% and the “% survival of HEK293 cells” value ([2]; 10^−8 M) was greater than 90%. For the same compound, the “∆Tm” value (CT-DNA) was 12 °C, the “Stern-Volmer quenching constant (Ksv)” value ([3]; BSA) was 104000 M⁻¹ and the “apparent bimolecular quenching constant (Kq)” value ([3]; BSA) was 1.04e+13 M⁻¹ s⁻¹. The “quenching of BSA emission band at 350 nm” value ([3]; BSA 10 µM, compound 0–16 µM) was “up to 70%”, the Kbin ([3]; BSA, Scatchard) was 47000 M⁻¹ and the “n (number of binding sites)” value ([3]; BSA, Scatchard) was 0.92. It also gave a Kd ([3]; BSA, Scatchard, read-out: binding constant (Kbin) (converted)) of 21.3 µM, a KSV ([3]; BSA, Stern-Volmer constant) of 104000 M⁻¹ and a Kq ([3]; BSA, apparent bimolecular quenching constant) of 1.04e+13 M⁻¹ s⁻¹.
